PubChem BioAssay AID1205 (EPA DSSTox, 2008)
Calls of active or inactive are those of the source.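 Rule for the calls: active = tumour findings in long-term animal cancer tests in more than one sex, species or organ; inactive = no tumour finding and more than one negative test.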

Assay: DSSTox (CPDBAS) Carcinogenic Potency Database Summary MultiCellCall Results
Settings: animal carcinogenicity bioassays, multi-cell call summary
Outline: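 Summary call drawn from chronic long-term cancer bioassays in rats, mice, hamsters, dogs and nonhuman primates, using the most positive result per sex-species. Score: multispecies=50, multisex=30, multisite=20, summed for combinations.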

Structure (SMILES)	outcome
CCCCCCCCCCCCN(C)N=O	active; multisite active; multisex active
Cc1ccc(Cc2cnc(NCCSCc3ccc(CN(C)C)o3)[nH]c2=O)cn1	active; multisex active
CC(C)C=O	inactive; multisex inactive; multispecies inactive
COc1ccccc1N1CCN(CCCNc2cc(=O)n(C)c(=O)n2C)CC1	inactive; multisex inactive
Nc1cc(S(=O)(=O)[O-])cc2cc(S(=O)(=O)[O-])c(N=Nc3ccc(-c4ccc(N=Nc5c(S(=O)(=O)[O-])cc6cc(S(=O)(=O)[O-])cc(N)c6c5O)c(O)c4)cc3O)c(O)c12.[Cu].[Cu].[Na+].[Na+].[Na+].[Na+]	active; multisite active; multisex active; multispecies active
NC(=S)Nc1cccc2ccccc12	inactive; multisex inactive
CCc1cccc2c3c([nH]c12)C(CC)(CC(=O)O)OCC3 (stereo not given)	inactive; multisex inactive; multispecies inactive
Brc1cc(Br)c(-c2cc(Br)c(Br)cc2Br)cc1Br	active; multisex active; multispecies active
CSCCC(N)C(=O)O (stereo not given)	inactive; multispecies inactive
C=COC(N)=O	active; multisite active; multisex active
COc1ccc(C(Cl)=C(c2ccc(OC)cc2)c2ccc(OC)cc2)cc1	inactive; multisex inactive
O=NN1CCCCC1	active; multisite active; multisex active; multispecies active
CC(C)(CO)CCCCCCC(C)(C)CO	inactive; multisex inactive
O=S(=O)(O)c1c(N=Nc2c(O)ccc3ccccc23)ccc2ccccc12	inactive; multisex inactive
ClC1=C(Cl)[C@]2(Cl)[C@@H]3[C@H]4C[C@H]([C@@H]5O[C@H]45)[C@@H]3[C@@]1(Cl)C2(Cl)Cl	inactive; multisex inactive; multispecies inactive
ClCC(Cl)Cl	active; multisite active; multisex active
CCOc1nc2cccc(C(=O)OC(C)OC(=O)OC3CCCCC3)c2n1Cc1ccc(-c2ccccc2-c2nn[nH]n2)cc1 (stereo not given)	inactive; multisex inactive
C=CCN(N)CC=C	active; multisite active; multisex active
Nc1ccccc1N	active; multisex active; multispecies active
Cc1ncc([N+](=O)[O-])n1CCO	active; multisite active; multisex active; multispecies active
CCCCNC(=O)N(CCCC)N=O	active; multisite active
CCc1ccc(C(c2ccc(CC)cc2)C(Cl)Cl)cc1	inactive; multisex inactive; multispecies inactive

Structure (SMILES)	outcome
O=C(O)C(Cl)Cl	active; multisex active; multispecies active
O=NN1CCCCCCC1	active; multisite active
Clc1ccccc1Cl	inactive; multisex inactive; multispecies inactive
CCN(CC)C(=S)S[Te](SC(=S)N(CC)CC)(SC(=S)N(CC)CC)SC(=S)N(CC)CC	inactive; multisex inactive; multispecies inactive
O=P(=O)O	inactive; multisex inactive
C=C(C)C#N	inactive; multisex inactive; multispecies inactive
CCc1nc(N)nc(N)c1-c1ccc(Cl)cc1	inactive; multisex inactive; multispecies inactive
ClC1=C(Cl)[C@@]2(Cl)[C@@H]3[C@@H](Cl)[C@H](Cl)C[C@@H]3C1(Cl)C2(Cl)Cl	active; multisex active
CN(C)Nc1nc(-c2ccc([N+](=O)[O-])o2)cs1	active; multisite active
C#C[C@]1(OC(C)=O)CC[C@H]2[C@@H]3CCC4=CC(=O)CC[C@@H]4[C@H]3CC[C@@]21C	active; multisite active; multispecies active
CN(N)C=O	active; multisite active; multisex active; multispecies active
Cc1cc(O)c(C(C)(C)C)cc1Sc1cc(C(C)(C)C)c(O)cc1C	inactive; multisex inactive; multispecies inactive
Oc1cccc2cccnc12.Oc1cccc2cccnc12.[Cu]	inactive; multisex inactive
FCCl	active; multisex active
O=CCCCC=O	inactive; multisex inactive; multispecies inactive
CC1CN(N=O)C(=O)NC1=O (stereo not given)	inactive; multisex inactive
O=[N+]([O-])c1ccc2c(c1)Cc1ccccc1-2	active; multisite active
C/C=C(\C)C(=O)O[C@@H]1CCN2CC=C(COC(=O)C(O)(C(C)C)C(C)O)[C@H]12 (stereo not given in full)	active; multisite active
ClC/C=C/CCl	active; multisex active
FC(F)OC(Cl)C(F)(F)F (stereo not given)	inactive; multisex inactive
COc1ccc(CCN2CCC(Nc3nc4ccccc4n3Cc3ccc(F)cc3)CC2)cc1	inactive; multisex inactive; multispecies inactive
C=C/C=N/O	inactive; multisex inactive

Structure (SMILES)	outcome
O=C(O)CCCc1ccc(N(CCCl)CCCl)cc1	active; multisite active; multisex active; multispecies active
CC(C)(C)O	active; multisite active; multisex active; multispecies active
Cc1cc(Cc2cc(C)cc(C(C)(C)C)c2O)c(O)c(C(C)(C)C)c1	inactive; multisex inactive
S=[Se]	active; multisite active; multisex active; multispecies active
Cc1ccc(N=Nc2c(O)c(S(=O)(=O)O)cc3ccc(S(=O)(=O)O)cc23)c(C)c1	active; multisex active; multispecies active
COc1ccc(C(=O)Nc2c(Cl)cncc2Cl)cc1OC1CCCC1	active; multisex active
O=C1OC(O)C(C(Cl)Cl)=C1Cl (stereo not given)	active; multisite active; multisex active
CBr	inactive; multisex inactive; multispecies inactive
CN(CCc1ccccc1)N=O	active; multisite active
NC(=O)OCC(COC(N)=O)c1ccccc1	active; multisite active; multisex active; multispecies active
OC[C@H]1O[C@@H]2O[C@H]3[C@H](O)[C@@H](O)[C@@H](O[C@H]4[C@H](O)[C@@H](O)[C@@H](O[C@H]5[C@H](O)[C@@H](O)[C@@H](O[C@H]6[C@H](O)[C@@H](O)[C@@H](O[C@H]7[C@H](O)[C@@H](O)[C@@H](O[C@H]8[C@H](O)[C@@H](O)[C@@H](O[C@H]1[C@H](O)[C@H]2O)O[C@@H]8CO)O[C@@H]7CO)O[C@@H]6CO)O[C@@H]5CO)O[C@@H]4CO)O[C@@H]3CO	inactive; multisex inactive; multispecies inactive
CCC(=O)C(CC(C)N(C)C)(c1ccccc1)c1ccccc1 (stereo not given)	inactive; multisex inactive; multispecies inactive
C=CC1=C(C)C2=CC3=NC(=C(CC(=O)[O-])C4=NC(=C(C)C4=C([O-])[O-])C=c4[n-]c(c(C)c4CC)=CC1=N2)[C@@H](CCC(=O)[O-])[C@@H]3C.[Cu+2].[Na+].[Na+].[Na+]	inactive; multisex inactive
Clc1ccc2c(c1)C(c1ccccc1)=NCc1nncn1-2	inactive; multisex inactive; multispecies inactive
O=S(=O)([O-])[O-].[O]=[V+2]	inactive; multisex inactive; multispecies inactive
COC(C(=O)O)c1ccccc1 (stereo not given)	inactive; multisex inactive
O=C1C=CC(=O)C=C1	active; multisex active
CC(O)COC(C)(C)C (stereo not given)	active; multisex active
O=[N+]([O-])c1cc(N(CCO)CCO)ccc1NCCO	inactive; multisex inactive; multispecies inactive
CN(C)/N=N/c1nc[nH]c1C(N)=O	active; multisite active; multisex active; multispecies active
Cc1cn([C@H]2C[C@H](N=[N+]=[N-])[C@@H](CO)O2)c(=O)[nH]c1=O	active; multispecies active
